Legend:
Type in all cases: cell-based
hROMK (human Kir1.1) = hROMK (human Kir1.1) (Homo sapiens (Human), UniProt P48048); assay: Thallium Flux Assay; settings: CHO T-Rex hROMK stable cell line, 10-point concentration response; read-out: hROMK Th+ Flux IC50
How it was run: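 CHO T-Rex cells, doxycycline-induced (0.5 μg/ml) one day before, FluxOR dye-loaded; compounds 30 min, then Tl+ stimulus (final 3 mM Tl2SO4, 0.15 mM K2SO4) with ouabain in chloride-free buffer. Fluorescence 488/525 nm for 90 s; IC50 from 10-point curve; DMSO 0.5 or 1%.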

hERG = hERG (Homo sapiens (Human), UniProt Q12809); assay: hERG Manual Patch Clamp Assay; settings: human, HEK 293 cells stably expressing hERG channels; for inhibition at 1 µM: pH 7.4, 1 μM, read-out: hERG EP IC50 (% Inhibition at 1 μM); for inhibition at 3 µM: pH 7.4, 3 uM, read-out: hERG EP % Inhibition at 3 uM; for inhibition at 10 µM: pH 7.4, 10 uM, read-out: hERG EP % Inhibition at 10 uM
hERG, sequence (Q12809 whole entry): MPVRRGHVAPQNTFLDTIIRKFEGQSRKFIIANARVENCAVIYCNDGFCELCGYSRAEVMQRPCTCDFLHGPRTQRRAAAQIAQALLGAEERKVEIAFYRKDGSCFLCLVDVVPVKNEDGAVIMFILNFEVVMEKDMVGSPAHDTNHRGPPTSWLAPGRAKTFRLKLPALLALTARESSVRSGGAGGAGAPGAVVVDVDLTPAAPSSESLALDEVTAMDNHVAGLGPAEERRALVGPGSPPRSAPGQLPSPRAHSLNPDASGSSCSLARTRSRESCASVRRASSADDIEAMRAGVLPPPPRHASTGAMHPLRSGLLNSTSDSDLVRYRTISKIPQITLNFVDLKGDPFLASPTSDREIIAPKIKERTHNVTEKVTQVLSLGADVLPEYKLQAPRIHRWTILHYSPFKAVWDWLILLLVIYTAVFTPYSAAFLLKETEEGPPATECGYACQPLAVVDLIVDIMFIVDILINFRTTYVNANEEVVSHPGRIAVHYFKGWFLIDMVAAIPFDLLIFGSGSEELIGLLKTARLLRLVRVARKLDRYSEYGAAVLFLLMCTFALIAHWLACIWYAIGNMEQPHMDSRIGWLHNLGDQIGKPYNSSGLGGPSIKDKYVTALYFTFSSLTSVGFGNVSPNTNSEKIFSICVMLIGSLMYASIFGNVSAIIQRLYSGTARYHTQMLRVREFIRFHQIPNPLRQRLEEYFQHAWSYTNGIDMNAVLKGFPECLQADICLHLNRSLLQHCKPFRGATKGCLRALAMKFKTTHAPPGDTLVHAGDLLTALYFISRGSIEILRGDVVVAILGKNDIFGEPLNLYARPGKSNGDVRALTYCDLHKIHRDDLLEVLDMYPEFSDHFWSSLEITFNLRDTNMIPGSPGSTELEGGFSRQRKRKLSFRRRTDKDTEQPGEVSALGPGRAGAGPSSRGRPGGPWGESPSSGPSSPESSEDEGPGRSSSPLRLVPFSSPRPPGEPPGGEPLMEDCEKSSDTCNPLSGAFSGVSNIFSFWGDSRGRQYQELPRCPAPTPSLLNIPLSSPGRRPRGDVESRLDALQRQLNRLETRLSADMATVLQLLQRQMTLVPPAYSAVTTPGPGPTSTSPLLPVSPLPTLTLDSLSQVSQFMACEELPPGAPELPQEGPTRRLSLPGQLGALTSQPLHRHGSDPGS
Protocol: hERG Manual Patch Clamp Assay
hERG electrophysiology assay: The experimental compounds were assessed for hERG activity on HEK 293 cells stably expressing hERG channels using patch clamp technique. Coverslips plated with hERG expressing cells were placed in the experimental chamber and were perfused with a solution composed of (in mM): 140 NaCl, 4 KCl, 1.8 CaCl2, 1 MgCl2, 10 Glucose, 10 HEPES (pH 7.4, NaOH) at room temperature. Borosilicate patch pipettes had tip resistances of 2-4 Mohms when filled with an internal solution containing: 130 KCl, 1 MgCl2, 1 CaCl2, 10 EGTA, 10 HEPES, 5 ATP-K2 (pH 7.2, KOH). The cells were clamped at −80 mV in whole cell configuration using an Axopatch 200B (Axon instruments, Union City, Calif.) patch clamp amplifier controlled by pClamp (Axon instruments) software. Upon formation of a gigaseal, the following voltage protocol was repeatedly (0.05 Hz) applied to record tail currents: depolarization step from −80 mV to +20 mV for 2 seconds followed by a hyperpolarization step to −65 mV (3 seconds) to elicit tail currents. Compounds were applied after stabilization of tail current. First, tail currents were recorded in presence of extracellular solution alone (control) and subsequently, in extracellular solution containing increasing compound concentrations. Each compound concentration was applied for 2-5 minutes. The percentage inhibition at each concentration was calculated as reduction in peak tail current with respect to the peak tail current recorded in the presence of control solution. Data analysis was performed in a custom made template. The percent inhibitions at different concentrations were plotted to obtain a concentration response curve, which was subsequently fitted with a four parameter equation to calculate hERG IC50 value.
A lower hERG % Inhibition value indicates less inhibition of the hERG current

hROMK = hROMK (Homo sapiens (Human), UniProt P48048); assay: ROMK Manual Patch Clamp Assay; settings: whole-cell manual patch clamp, hROMK expressing cells; read-out: hROMK EP IC50
hROMK, sequence (P48048 whole entry): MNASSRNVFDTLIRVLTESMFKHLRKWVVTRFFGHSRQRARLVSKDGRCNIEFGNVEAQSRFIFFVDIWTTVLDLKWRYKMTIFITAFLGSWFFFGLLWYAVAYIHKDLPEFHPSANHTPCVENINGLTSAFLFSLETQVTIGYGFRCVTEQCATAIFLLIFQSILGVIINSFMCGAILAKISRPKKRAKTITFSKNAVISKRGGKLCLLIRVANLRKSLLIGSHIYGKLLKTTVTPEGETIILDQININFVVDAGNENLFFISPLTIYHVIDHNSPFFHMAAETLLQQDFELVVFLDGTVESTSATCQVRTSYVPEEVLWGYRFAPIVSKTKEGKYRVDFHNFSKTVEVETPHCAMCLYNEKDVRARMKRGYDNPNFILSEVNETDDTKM
Protocol: ROMK Manual Patch Clamp Assay
Cell culture conditions: Cells were maintained in conditions similar to those for Thallium flux assay. hROMK channel expression was induced by adding 0.6 μg/ml of Doxycycline 16-24 hrs prior to the experiments. On the day of experiment, the cells were dissociated using Versene, resuspended in growth media and plated onto coverslips 15 minutes prior to use.
Electrophysiology: The coverslip plated with cells was placed in the experiment chamber perfused with bath solution composed of (in mM): 135 NaCl, 5 KCl, 2 CaCl2, 1 MgCl2, 10 HEPES, 5 Glucose (pH 7.4). Patch pipettes with resistance between 2-5 Megaohms, when filled with a solution containing (in mM): 135 KCl, 1 EGTA, 1 MgCl2, 10 HEPES, 2 Na2ATP (pH 7.3), were used to form gigaseals. The cells were voltage clamped at −75 mV in whole-cell configuration using an Axopatch 200b or Multiclamp 700b (Molecular Devices) amplifier controlled by pClamp Software (Molecular Devices). The current was recorded by applying a voltage step to −120 mV every 10 seconds. For each compound, 4-6 concentrations were applied for 3-8 minutes in a successive manner starting with the lowest concentration. At the end of the experiment, the cells were perfused with bath solution containing 2 mM Ba^2+ to isolate the contribution of hROMK current.
Data analysis: Raw current values (5 traces each for control, different compound concentration and Ba^2+ treatment groups) were exported from Clampfit into Microsoft Excel where the current remaining after application of Ba^2+ was subtracted from raw current to obtain hROMK specific current. These hROMK current values (average of 5 traces for each group) were then imported into a custom made template to generate a concentration response curve, which was subsequently fitted with a four parameter equation to calculate the IC50 value of the test compound.
The data in Table 4 is reported with two significant figures.

hROMK (human Kir1.1), sequence (P48048 whole entry): as above

Row | Structure (SMILES) | IC50 (hROMK (human Kir1.1)) [nM] | IC50 (hROMK) [nM] | inhibition at 1 µM (hERG) [%] | inhibition at 3 µM (hERG) [%] | inhibition at 10 µM (hERG) [%]
1 | Cc1c(C(O)CN2CCc3nc(-n4ncc5ncccc54)ncc3C2)ccc2c1COC2=O (single isomer, unassigned) [Example 41-I, 5-(2-(2-(1H-pyrazolo[4,3-b]pyridin-1-yl)-7,8-dihydropyrido[4,3-d]pyrimidin-6(5H)-yl)-1-hydroxyethyl)-4-methylisobenzofuran-1(3H)-one] | 60 | 23 | 11 |  | 
2 | N#Cc1ccc(Nc2ccc3c(c2)CCN(Cc2ccc4c(c2)COC4=O)C3)cc1F [Example 4, 2-fluoro-4-((2-((1-oxo-1,3-dihydroisobenzofuran-5-yl)methyl)-1,2,3,4-tetrahydroisoquinolin-6-yl)amino)benzonitrile] | 29 | 31 | 94 |  | 
3 | Cc1c(C(O)CN2CCc3nc(-n4ccc5c(C#N)cncc54)ncc3C2)ccc2c1COC2=O (single isomer, unassigned) [Example 42-I, 1-(6-(2-hydroxy-2-(4-methyl-1-oxo-1,3-dihydroisobenzofuran-5-yl)ethyl)-5,6,7,8-tetrahydropyrido[4,3-d]pyrimidin-2-yl)-1H-pyrrolo[2,3-c]pyridine-4-carbonitrile] | 70 | 34 | 41 |  | 
4 | Cc1c(C(O)CN2CCc3nc(-n4cnc5ncccc54)ncc3C2)ccc2c1COC2=O (single isomer, unassigned) [Example 53-I, 5-(2-(2-(1H-imidazo[4,5-b]pyridin-1-yl)-7,8-dihydropyrido[4,3-d]pyrimidin-6(5H)-yl)-1-hydroxyethyl)-4-methylisobenzofuran-1(3H)-one] | 135 | 87 | 13 | 34 | 

More lines, main results first:

Row | IC50 (hROMK (human Kir1.1)) [nM] | IC50 (hROMK) [nM] | Structure (SMILES) | inhibition at 1 µM (hERG) [%] | inhibition at 3 µM (hERG) [%] | inhibition at 10 µM (hERG) [%]
5 | 62 | 13 | Cc1cn(-c2ncc3c(n2)CCN(CC(O)c2ccc4c(c2C)COC4=O)C3)cn1 (single isomer, unassigned) [Example 58-I, 5-(1-hydroxy-2-(2-(4-methyl-1H-imidazol-1-yl)-7,8-dihydropyrido[4,3-d]pyrimidin-6(5H)-yl)ethyl)-4-methyl isobenzofuran-1(3H)-one] | 9 | 20 | 42
6 | 44 | 12 | Cc1c(C(O)CN2CCc3nc(-n4cc(C#N)cn4)ncc3C2)ccc2c1COC2=O (single isomer, unassigned) [Example 56-I, 1-(6-(2-hydroxy-2-(4-methyl-1-oxo-1,3-dihydroisobenzofuran-5-yl)ethyl)-5,6,7,8-tetrahydropyrido[4,3-d]pyrimidin-2-yl)-1H-pyrazole-4-carbonitrile] | 35 | 65 | 82
7 | 29 | 23 | Cc1c(C(O)CN2CCc3nc(-n4cc(C#N)c5ncccc54)ncc3C2)ccc2c1COC2=O (single isomer, unassigned) [Example 68-I, 1-(6-(2-hydroxy-2-(4-methyl-1-oxo-1,3-dihydroisobenzofuran-5-yl)ethyl)-5,6,7,8-tetrahydropyrido[4,3-d]pyrimidin-2-yl)-1H-pyrrolo[3,2-b]pyridine-3-carbonitrile] | 22 | 54 | 86
